Patent US20240425517A1, “NOVEL COMPOUND FOR DEGRADATION OF TARGET PROTEIN OR POLYPEPTIDE BY POLYUBIQUITINATION” (PRAZER THERAPEUTICS INC., priority 2021, published 2024)

Target: T1, BRD4 proteins (Homo sapiens, UniProt O60885)
T1 construct: endogenous in cells; host or cells: MM.1S
Experiment: Degradation of BRD4 protein in MM.1S cell lines (Western blot densitometry)
Type: cell-based
Conditions: MM.1S cells, 10 μM, 24 hours
Protocol: To confirm that the compounds (BRD4 degraders) of Preparation Examples I′ to IV′ reduce the amount of BRD4 proteins, experiments were performed using MM.1S cell lines, which are B cells derived from the blood of multiple myeloma patients.
Specifically, the MM.1S cells were cultured in RPMI-1640 medium supplemented with 10% fetal bovine serum and Penicillin/Streptomycin (100 U/mL), transferred to a 6-well plate, and after 24 hours, the BRD4 degraders were diluted in the culture medium and the cells were treated with 10 μM each. After treatment, the cells were incubated in a C02 incubator for 24 hours. Through protein immunoblotting (Western Blot), the degrading capacity of each compound against BRD4 proteins in cells was confirmed. After cell culture was completed according to the experimental conditions, the cells were collected and centrifuged at 1,800 rpm for 3 minutes. The cells in the precipitate were lysed with RIPA (25 mM Tris-HCl pH 7.6, 150 mM NaCl, 1% NP-40, 1% sodium deoxycholate, 0.1% SDS, 1× Protease Inhibitor Cocktail), 5× sample buffer was added, and then heated at 100° C. for 15 minutes. The prepared sample was electrophoresed with sodium dodecyl sulfate poly acrylamide gel electrophoresis (SDS-PAGE), and then the proteins in the gel were transferred to a PVDF membrane using Trans-Blot Turbo. The membrane was treated with a 5% bovine serum albumin (BSA) solution and blocked at room temperature for 2 hours, and then BRD4 and R-actin antibodies were diluted in the 5% BSA solution to react with the membrane at 4° C. overnight. After washed with PBST (0.5% Tween20) 5 times, horse radish peroxidase (HRP)-conjugated secondary antibodies were diluted in PBST to react at room temperature for 2 hours, and then washed again with a PBST solution 5 times. After enzyme-substrate reaction was carried out using a HRP substrate, a signal was measured with chemi-doc equipment, and the densitometry of a band corresponding to the BRD4 protein detected in the Preparation Example Compounds was quantitatively analyzed. The case when the degrading capacity of each BRD4 degrader was reduced by less than 40% is indicated as +, the case when the degrading capacity was reduced by 40% to 70% (exclusive of 70) is indicated as ++, the case when the degrading capacity was reduced by 70% or more is indicated as +++ in Tables 16 to 19 below. As shown in the following Tables, it was confirmed that the compounds of Preparation Examples I′ to IV′ according to the present invention have excellent degrading capacity.

| Compound | BRD4 degrading capacity (%) |
| --- | --- |
| Cc1sc2c(c1C)C(c1ccc(Cl)cc1)=N[C@@H](CC(=O)Nc1ccc(CO)c(C#CCN)c1)c1nnc(C)n1-2.Cl [3-27′, (S)—N-(3-(3-aminoprop-1-yn-1-yl)-4-(hydroxymethyl)phenyl)-2-(4-(4-chlorophenyl)-2,3,9-trimethyl-6H-thieno[3,2-f][1,2,4]triazolo[4,3-a][1,4]diazepin-6-yl)acetamide hydrochloride] | ++ (the degrading capacity was reduced by 40% to 70% (exclusive of 70)) |
| Cc1sc2c(c1C)C(c1ccc(Cl)cc1)=N[C@@H](CC(=O)Nc1ccc(C#CC(N)CO)cc1)c1nnc(C)n1-2.Cl (stereo partly drawn) [3-49′, N-(4-(3-amino-4-hydroxybut-1-yn-1-yl)phenyl)-2-((S)-4-(4-chlorophenyl)-2,3,9-trimethyl-6H-thieno[3,2-f][1,2,4]triazolo[4,3-a][1,4]diazepin-6-yl)acetamide hydrochloride] | ++ (the degrading capacity was reduced by 40% to 70% (exclusive of 70)) |
| Cc1sc2c(c1C)C(c1ccc(Cl)cc1)=N[C@@H](CC(=O)Nc1cccc(C#CC(N)CO)c1)c1nnc(C)n1-2.Cl (stereo partly drawn) [3-51′, N-(3-(3-amino-4-hydroxybut-1-yn-1-yl)phenyl)-2-((S)-4-(4-chlorophenyl)-2,3,9-trimethyl-6H-thieno[3,2-f][1,2,4]triazolo[4,3-a][1,4]diazepin-6-yl)acetamide hydrochloride] | +++ (the degrading capacity was reduced by 70% or more) |
| Cc1sc2c(c1C)C(c1ccc(Cl)cc1)=N[C@@H](CC(=O)Nc1ccc(C#CC(N)COP(=O)(O)O)cc1)c1nnc(C)n1-2 (stereo partly drawn) [3-57′, 2-amino-4-(4-(2-((S)-4-(4-chlorophenyl)-2,3,9-trimethyl-6H-thieno[3,2-f][1,2,4]triazolo[4,3-a][1,4]diazepin-6-yl)acetamido)phenyl)but-3-yn-1-yl dihydrogen phosphate trifluoroacetic acid] | ++ (the degrading capacity was reduced by 40% to 70% (exclusive of 70)) |
| Cc1sc2c(c1C)C(c1ccc(Cl)cc1)=N[C@@H](CC(=O)NCC#Cc1ccc(C#CCN)o1)c1nnc(C)n1-2.Cl [4-1′, (S)—N-(3-(5-(3-aminoprop-1-yn-1-yl)furan-2-yl)prop-2-yn-1-yl)-2-(4-(4-chlorophenyl)-2,3,9-trimethyl-6H-thieno[3,2-f][1,2,4]triazolo[4,3-a][1,4]diazepin-6-yl)acetamide hydrochloride] | ++ (the degrading capacity was reduced by 40% to 70% (exclusive of 70)) |
| COC(=O)c1cc(N2CCN(C(=O)C[C@@H]3N=C(c4ccc(Cl)cc4)c4c(sc(C)c4C)-n4c(C)nnc43)CC2)ccc1C#CCN.Cl [4-2′, methyl (S)-2-(3-aminoprop-1-yn-1-yl)-5-(4-(2-(4-(4-chlorophenyl)-2,3,9-trimethyl-6H-thieno[3,2-f][1,2,4]triazolo[4,3-a][1,4]diazepin-6-yl)acetyl)piperazin-1-yl)benzoate hydrochloride] | +++ (the degrading capacity was reduced by 70% or more) |
| Cc1sc2c(c1C)C(c1ccc(Cl)cc1)=N[C@@H](CC(=O)NCC#Cc1ccc(C#CCN)s1)c1nnc(C)n1-2.Cl [4-10′, (S)—N-(3-(5-(3-aminoprop-1-yn-1-yl)thiophen-2-yl)prop-2-yn-1-yl)-2-(4-(4-chlorophenyl)-2,3,9-trimethyl-6H-thieno[3,2-f][1,2,4]triazolo[4,3-a][1,4]diazepin-6-yl)acetamide hydrochloride] | +++ (the degrading capacity was reduced by 70% or more) |
| Cc1sc2c(c1C)C(c1ccc(Cl)cc1)=N[C@@H](CC(=O)NCCC(=O)Nc1ccc(C#CCN)cc1)c1nnc(C)n1-2.Cl [4-124′, (S)—N-(4-(3-aminoprop-1-yn-1-yl)phenyl)-3-(2-(4-(4-chlorophenyl)-2,3,9-trimethyl-6H-thieno[3,2-f][1,2,4]triazolo[4,3-a][1,4]diazepin-6-yl)acetamido)propanamide hydrochloride] | +++ (the degrading capacity was reduced by 70% or more) |
| Cc1sc2c(c1C)C(c1ccc(Cl)cc1)=N[C@@H](CC(=O)NCCC(=O)Nc1ccc(C#CCN)c(CO)c1)c1nnc(C)n1-2.Cl [4-125′, (S)—N-(4-(3-aminoprop-1-yn-1-yl)-3-(hydroxymethyl)phenyl)-3-(2-(4-(4-chlorophenyl)-2,3,9-trimethyl-6H-thieno[3,2-f][1,2,4]triazolo[4,3-a][1,4]diazepin-6-yl)acetamido)propanamide hydrochloride] | +++ (the degrading capacity was reduced by 70% or more) |
| COC(=O)c1cc(NC(=O)CCNC(=O)C[C@@H]2N=C(c3ccc(Cl)cc3)c3c(sc(C)c3C)-n3c(C)nnc32)ccc1C#CCN.Cl [4-126′, methyl (S)-2-(3-aminoprop-1-yn-1-yl)-5-(3-(2-(4-(4-chlorophenyl)-2,3,9-trimethyl-6H-thieno[3,2-f][1,2,4]triazolo[4,3-a][1,4]diazepin-6-yl)acetamido)propanamido)benzoate hydrochloride] | ++ (the degrading capacity was reduced by 40% to 70% (exclusive of 70)) |
| Cc1sc2c(c1C)C(c1ccc(Cl)cc1)=N[C@@H](CC(=O)NCC#Cc1ccc(C#CCN)cc1)c1nnc(C)n1-2.Cl [4-128′] | ++ (the degrading capacity was reduced by 40% to 70% (exclusive of 70)) |
| Cc1sc2c(c1C)C(c1ccc(Cl)cc1)=N[C@@H](CC(=O)NCC#Cc1cccc(C#CCN)c1)c1nnc(C)n1-2.Cl [4-129′, (S)—N-(3-(3-(3-aminoprop-1-yn-1-yl)phenyl)prop-2-yn-1-yl)-2-(4-(4-chlorophenyl)-2,3,9-trimethyl-6H-thieno[3,2-f][1,2,4]triazolo[4,3-a][1,4]diazepin-6-yl)acetamide hydrochloride] | +++ (the degrading capacity was reduced by 70% or more) |
| Cc1sc2c(c1C)C(c1ccc(Cl)cc1)=N[C@@H](CC(=O)NCCC#Cc1ccc(C#CCCN)o1)c1nnc(C)n1-2.Cl [4-147′, (S)—N-(4-(5-(4-aminobut-1-yn-1-yl)furan-2-yl)but-3-yn-1-yl)-2-(4-(4-chlorophenyl)-2,3,9-trimethyl-6H-thieno[3,2-f][1,2,4]triazolo[4,3-a][1,4]diazepin-6-yl)acetamide hydrochloride] | ++ (the degrading capacity was reduced by 40% to 70% (exclusive of 70)) |
| Cc1sc2c(c1C)C(c1ccc(Cl)cc1)=N[C@@H](CC(=O)NCC#CCNC(=O)c1ccc(C#CCN)o1)c1nnc(C)n1-2.Cl [4-148′, (S)-5-(3-aminoprop-1-yn-1-yl)-N-(4-(2-(4-(4-chlorophenyl)-2,3,9-trimethyl-6H-thieno[3,2-f][1,2,4]triazolo[4,3-a][1,4]diazepin-6-yl)acetamido)but-2-yn-1-yl)furan-2-carboxamide hydrochloride] | + (the degrading capacity of each BRD4 degrader was reduced by less than 40%) |
| Cc1sc2c(c1C)C(c1ccc(Cl)cc1)=N[C@@H](CC(=O)NCCCCNC(=O)c1ccc(C#CCN)o1)c1nnc(C)n1-2.Cl [4-149′] | +++ (the degrading capacity was reduced by 70% or more) |
| Cc1sc2c(c1C)C(c1ccc(Cl)cc1)=N[C@@H](CC(=O)NCCC(=O)Nc1cccc(C#CCN)c1)c1nnc(C)n1-2.Cl [4-161′, (S)—N-(3-(3-aminoprop-1-yn-1-yl)phenyl)-3-(2-(4-(4-chlorophenyl)-2,3,9-trimethyl-6H-thieno[3,2-f][1,2,4]triazolo[4,3-a][1,4]diazepin-6-yl)acetamido)propanamide hydrochloride] | +++ (the degrading capacity was reduced by 70% or more) |
